The text below walks through data of publication PMC7755424 (Journal of medicinal chemistry, 2020).

Series [1] in a line: Solubility by light scattering. Type of series: physicochemical. The following applies: 1% DMSO:99% PBS buffer.
Another series deals with T1, human sEH (Homo sapiens, UniProt P34913).
T1 sequence (P34913 1-555): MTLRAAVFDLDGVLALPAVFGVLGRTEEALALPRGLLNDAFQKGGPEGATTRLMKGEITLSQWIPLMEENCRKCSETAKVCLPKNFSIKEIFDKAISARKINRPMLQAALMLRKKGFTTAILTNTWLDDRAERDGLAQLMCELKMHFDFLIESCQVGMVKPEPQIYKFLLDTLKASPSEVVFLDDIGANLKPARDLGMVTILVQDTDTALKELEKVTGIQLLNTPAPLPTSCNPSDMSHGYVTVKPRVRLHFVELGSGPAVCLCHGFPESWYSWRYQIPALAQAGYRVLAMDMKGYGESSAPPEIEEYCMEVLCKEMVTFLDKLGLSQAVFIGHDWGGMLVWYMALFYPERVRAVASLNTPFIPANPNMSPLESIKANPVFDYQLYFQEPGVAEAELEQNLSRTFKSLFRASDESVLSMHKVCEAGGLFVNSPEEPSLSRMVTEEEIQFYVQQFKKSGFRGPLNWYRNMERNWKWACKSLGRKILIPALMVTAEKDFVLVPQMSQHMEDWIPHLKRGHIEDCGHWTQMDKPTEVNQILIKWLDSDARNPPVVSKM
Put plainly: sEH inhibition, fluorescent-based assay. It is filed as biochemical. To be noted: for reduction of the potency (hsEH) relative to 12: compared with 12.

For another series, the target named is T2, hLOX-5 (Homo sapiens, UniProt P09917).
T2 sequence (P09917 1-674): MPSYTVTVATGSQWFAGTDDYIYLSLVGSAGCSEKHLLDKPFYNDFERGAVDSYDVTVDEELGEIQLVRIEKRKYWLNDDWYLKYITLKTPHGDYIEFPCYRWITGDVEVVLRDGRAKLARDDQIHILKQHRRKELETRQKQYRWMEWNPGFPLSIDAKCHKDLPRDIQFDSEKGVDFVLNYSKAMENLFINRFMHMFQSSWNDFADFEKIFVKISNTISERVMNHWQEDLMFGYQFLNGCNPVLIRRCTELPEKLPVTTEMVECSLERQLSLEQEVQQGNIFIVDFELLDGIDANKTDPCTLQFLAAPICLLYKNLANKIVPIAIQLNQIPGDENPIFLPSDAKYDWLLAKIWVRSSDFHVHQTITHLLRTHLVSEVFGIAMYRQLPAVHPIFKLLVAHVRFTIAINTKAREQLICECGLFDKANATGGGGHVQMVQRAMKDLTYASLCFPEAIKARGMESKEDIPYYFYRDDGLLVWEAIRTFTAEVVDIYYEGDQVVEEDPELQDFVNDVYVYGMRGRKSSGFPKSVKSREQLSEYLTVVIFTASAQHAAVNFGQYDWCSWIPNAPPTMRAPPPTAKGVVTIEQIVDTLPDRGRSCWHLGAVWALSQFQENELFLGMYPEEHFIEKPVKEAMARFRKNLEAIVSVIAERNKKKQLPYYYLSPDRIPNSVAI
Put plainly: Inhibition of human lipoxygenase-5. To be noted: selectivity. Type of series: biochemical.

The subject of series [2] is Peripheral Blood Mononuclear Cells (PBMC). Put plainly: Cytotoxicity in PBMCs cells + 1.5% PHA. It is filed as cell-based. To be noted: highest concentration tested (20 μM).
Series [3] has as its system human recombinant cytochrome P450 enzymes, mainly CYP1A2, CYP2C9, CYP2C19, CYP2D6 and CYP3AE. The series is described as follows: Cytochrome P450 inhibition assay. Type of series: in vitro ADME.
In another series the target is hERG channel (Homo sapiens, UniProt Q12809). Put plainly: hERG inhibition. The following applies: at 10 μM.
hERG channel, sequence (Q12809 whole entry): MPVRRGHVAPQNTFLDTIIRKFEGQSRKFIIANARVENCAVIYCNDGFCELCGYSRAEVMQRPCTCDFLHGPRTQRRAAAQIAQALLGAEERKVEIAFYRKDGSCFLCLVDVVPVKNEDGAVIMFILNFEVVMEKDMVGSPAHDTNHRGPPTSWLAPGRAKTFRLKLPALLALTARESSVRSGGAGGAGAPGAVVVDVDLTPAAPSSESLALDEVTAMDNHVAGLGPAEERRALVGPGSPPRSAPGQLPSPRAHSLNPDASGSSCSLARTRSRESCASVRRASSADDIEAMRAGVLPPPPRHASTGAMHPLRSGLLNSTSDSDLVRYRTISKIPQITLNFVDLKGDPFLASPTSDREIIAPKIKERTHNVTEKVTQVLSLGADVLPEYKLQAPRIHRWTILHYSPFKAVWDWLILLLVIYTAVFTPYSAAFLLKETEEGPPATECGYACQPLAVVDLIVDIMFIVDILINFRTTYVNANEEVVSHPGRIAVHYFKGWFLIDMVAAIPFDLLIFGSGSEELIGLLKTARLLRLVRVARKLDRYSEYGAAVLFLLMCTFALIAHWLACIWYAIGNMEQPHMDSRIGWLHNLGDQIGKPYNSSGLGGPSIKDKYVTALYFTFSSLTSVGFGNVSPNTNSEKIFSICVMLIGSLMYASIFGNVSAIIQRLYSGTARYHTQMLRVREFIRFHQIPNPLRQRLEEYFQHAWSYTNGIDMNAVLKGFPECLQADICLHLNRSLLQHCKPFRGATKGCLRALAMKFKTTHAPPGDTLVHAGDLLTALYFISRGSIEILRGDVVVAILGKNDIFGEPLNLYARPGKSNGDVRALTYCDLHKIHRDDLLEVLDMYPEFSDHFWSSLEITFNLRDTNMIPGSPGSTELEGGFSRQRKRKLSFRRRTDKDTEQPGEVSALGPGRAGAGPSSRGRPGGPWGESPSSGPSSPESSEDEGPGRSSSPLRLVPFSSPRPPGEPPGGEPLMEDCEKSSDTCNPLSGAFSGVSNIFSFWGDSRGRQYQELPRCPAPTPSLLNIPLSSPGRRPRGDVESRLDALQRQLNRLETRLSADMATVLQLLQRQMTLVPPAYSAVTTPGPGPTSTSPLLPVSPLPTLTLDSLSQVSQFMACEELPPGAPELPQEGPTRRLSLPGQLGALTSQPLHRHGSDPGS
In series [4] the test system is AR42J pancreatic acinar rat cell line. The series is described as follows: In vitro proof of concept: cerulein-induced AP in AR42J cells. Type of series: cell-based. To be noted: 60 μM, cerulein 10 nM.
The nature of series [5]: Pharmacokinetic study in mouse. To be noted: IP, 1 mg/kg.
Series [6] concerns cerulein-induced AP. Put plainly: In vivo efficacy, cerulein-induced AP, post-induction. The arrangement: species or system C57BL/6J mice. The following applies: for inflammatory (TNF-α, IL-1β and MCP-1) and ER stress (ATF3) markers mRNA: post-induction, vs cerulein only.
Series [7] in a line: Maximum tolerated dose study. Type of series: in vivo. To be noted: mice, ip daily, 5, 10, 20 and 80 mg/kg, five consecutive days.
Series [8] has as its system cerulein-induced AP. The series is described as follows: In vivo efficacy, cerulein-induced AP, pre-induction. On the set-up: species or system C57BL/6J mice.

Molecules are shown by their SMILES. ≈ marks a conversion by molar mass, not a printed value.

On to `CC(=O)N1CCC(NC(=O)NC23CC4CC(CC(C4)C2)C3)CC1` [Compound 1, 1-(1-Acetyl-piperidin-4-yl)-3-adamantan-1-yl-urea], for which the solubility at 2 h in series [1] worked out at 24 µM (≈ 7.67 µg/mL).

With `O=C(NC1CCN(C(=O)C2CCOCC2)CC1)NC12CC3CC(CC(C3)O1)C2` [Compound 19, 1-(2-Oxaadamant-1-yl)-3-(1-(tetrahydro-2H-pyran-4-carbonyl)piperidin-4-yl)urea], at human sEH, the “reduction of the potency (hsEH) relative to 12” value is reported as 10–15 fold.

`O=C(Nc1ccc(F)c(F)c1F)NC12OC3C4C5CC(C6C5C3C61)C42` (stereo not shown) [Compound 9, 1-(4-oxahexacyclo[5.4.1.0^2,6.0^3,10.0^5,9.0^8,11]dodecan-3-yl)-3-(2,3,4-trifluorophenyl)urea] yielded an IC50 at human sEH of 0.0313 µM. This lies in the double-digit nanomolar range.

Regarding `CS(=O)(=O)N1CCC(NC(=O)NC23CC4CC(CC(C4)O2)C3)CC1` [Compound 26, 1-(2-Oxaadamantan-1-yl)-3-(1-(methylsulfonyl)piperidin-4-yl)urea], at human sEH, the “reduction of the potency (hsEH) relative to 12” value was “eight”.

For the molecule `O=C(NC1CCN(C(=O)c2ccccc2F)CC1)NC12CC3CC(CC(C3)O1)C2` [Compound 21, 1-(2-Oxaadamant-1-yl)-3-(1-(2-fluorobenzoyl)piperidin-4-yl)urea], the “inhibition of hLOX-5” value at hLOX-5 is recorded as “displayed significant inhibition”. In addition, the “cytotoxicity in the PBMC” value in series [2] is listed as “not cytotoxic”.

On to `CC(=O)N1CCC(NC(=O)NC23CC4CC(CC(C4)O2)C3)CC1` [Compound 12, 1-(1-acetylpiperidin-4-yl)-3-(oxaadamant-1-yl)urea], for which the “potency inhibiting the different cytochromes tested” value in series [3] is reported as “higher than 10 μM”. Besides, the “inhibition on hERG” value on hERG channel is “minimal inhibition”. For the same molecule, the “cytotoxicity in the PBMC” value in series [2] is listed as “not cytotoxic”.

`O=C(NC1CCN(C(=O)C2CC2)CC1)NC12CC3CC(CC(C3)O1)C2` [Compound 23, 1-(2-Oxaadamant-1-yl)-3-(1-(cyclopropanecarbonyl)-piperidin-4-yl)urea]: the “reduction of the potency (hsEH) relative to 12” value at human sEH is recorded as 10–15 fold.

For the molecule `CC(C)S(=O)(=O)N1CCC(NC(=O)NC23CC4CC(CC(C4)O2)C3)CC1` [Compound 22, 1-(2-Oxaadamant-1-yl)-3-(1-(isopropylsulfonyl)piperidin-4-yl)urea], the “potency inhibiting the different cytochromes tested” value in series [3] was “higher than 10 μM”. Besides, the “inhibition of hLOX-5” value against hLOX-5 is “displayed significant inhibition”. The “increase in the expression of IL-6, CHOP and TRB3 caused by cerulein” value in [4] is recorded as “completely abolished”. Further, the “increment in TNF-α caused by cerulein exposure” value in [4] is reported as “strongly attenuated”. Moreover, the Cl in series [5] was found to be 473.5 mL/min/kg. For the same molecule, the “inflammatory (TNF-α, IL-1β and MCP-1) and ER stress (ATF3) markers mRNA” value with cerulein-induced AP [6] (3 mg/kg) is recorded as “did not cause a significant reduction”; in the series with cerulein-induced AP [6] (30 mg/kg), “significant reduction”. Also, the “cerulein-induced edema and inflammation (H&E histology)” value with cerulein-induced AP [6] (treated after the induction of AP) and with cerulein-induced AP [8] (treated before the induction of AP) was “significant decrease” throughout. For the same molecule, at hERG channel, the “inhibition on hERG” value was “minimal inhibition”. Moreover, the “toxic effects (body weight, behavior problems, petechiae)” value in [7] is given as “No toxic effects were observed”. Besides, the “cytotoxicity in the PBMC” value in series [2] is recorded as “not cytotoxic”. Also, in the series on cerulein-induced AP [8] (pre-induction, 30 mg/kg), the “increase of inflammatory (TNF-α, IL1-β and MCP-1) and ER stress (ATF3) markers produced by cerulein” value is “significantly reduced”.

On to `CCC(=O)N1CCC(NC(=O)NC23CC4CC(CC(C4)O2)C3)CC1` [Compound 24, 1-(2-Oxaadamantan-1-yl)-3-(1-propionylpiperidin-4-yl)urea], for which the “reduction of the potency (hsEH) relative to 12” value at human sEH was 10–15 fold. Also, at hLOX-5, the “inhibition of hLOX-5” value is recorded as “displayed significant inhibition”.

At human sEH, `O=C(Nc1ccc(F)c(F)c1F)NC12CC3CC(C1)OC(C3)C2` [Compound 4, 1-(2-oxaadamant-5-yl)-3-(2,3,4-trifluorophenyl)urea] returned a 50% inhibitory concentration (IC50) of 0.0474 µM.

`O=C(NC1CCN(Cc2ccccc2)CC1)NC12CC3CC(CC(C3)O1)C2` [Compound 15, 1-(2-Oxaadamant-1-yl)-3-(1-benzylpiperidin-4-yl)urea]: on human sEH, the “reduction of the potency (hsEH) relative to 12” value is reported as approximately 40 fold.

In the case of `O=C(NC1CCN(C(=O)c2cccnc2)CC1)NC12CC3CC(CC(C3)O1)C2` [Compound 20, 1-(2-Oxaadamant-1-yl)-3-(1-nicotinoylpiperidin-4-yl)urea], on human sEH (3-pyridyl vs 2-fluorophenyl (21)), the “drop in inhibitory activity (hsEH) relative to 21” value turned out to be 3 folds.
